The results in this text go back to patent US20220168315A1, “COMPOUNDS AND THERAPEUTIC USES THEREOF” (priority 2019, published 2022).

Each structure is given as a SMILES string.

This assay has as its target T1, PIKfyve (Homo sapiens, UniProt Q9Y2I7).
T1 construct: T7 phage fusion (kinase-tagged phage) or DNA tag for qPCR; made in house; host or cells: E. coli BL21-derived host (T7 phage) for most kinases, HEK-293 for the rest
The experiment in a line: Kinase binding assay (kinase-tagged T7 phage, affinity beads, qPCR readout), Kd determination. The conditions noted are these: 11-point 3-fold dilution series. The protocol:
Kinase assays. For most assays, kinase-tagged T7 phage strains were prepared in an E. coli host derived from the BL21 strain. E. coli were grown to log-phase and infected with T7 phage and incubated with shaking at 32° C. until lysis. The lysates were centrifuged and filtered to remove cell debris. The remaining kinases were produced in HEK-293 cells and subsequently tagged with DNA for qPCR detection. Streptavidin-coated magnetic beads were treated with biotinylated small molecule ligands for 30 minutes at room temperature to generate affinity resins for kinase assays. The liganded beads were blocked with excess biotin and washed with blocking buffer (SeaBlock (Pierce), 1% BSA, 0.05% Tween 20, 1 mM DTT) to remove unbound ligand and to reduce non-specific binding. Binding reactions were assembled by combining kinases, liganded affinity beads, and test compounds in 1× binding buffer (20% SeaBlock, 0.17×PBS, 0.05% Tween 20, 6 mM DTT). Test compounds were prepared as 111× stocks in 100% DMSO. Kds were determined using an 11-point 3-fold compound dilution series with three DMSO control points. All compounds for Kd measurements are distributed by acoustic transfer (non-contact dispensing) in 100% DMSO. The compounds were then diluted directly into the assays such that the final concentration of DMSO was 0.9%. All reactions performed in polypropylene 384-well plate. Each was a final volume of 0.02 ml. The assay plates were incubated at room temperature with shaking for 1 hour and the affinity beads were washed with wash buffer (1×PBS, 0.05% Tween 20). The beads were then re-suspended in elution buffer (1×PBS, 0.05% Tween 20, 0.5 μM non-biotinylated affinity ligand) and incubated at room temperature with shaking for 30 minutes. The kinase concentration in the eluates was measured by qPCR.
An 11-point 3-fold serial dilution of each test compound was prepared in 100% DMSO at 100× final test concentration and subsequently diluted to 1× in the assay (final DMSO concentration=1%). Most Kds were determined using a compound top concentration=30,000 nM. If the initial Kd determined was <0.5 nM (the lowest concentration tested), the measurement was repeated with a serial dilution starting at a lower top concentration.
(In general: In qPCR the cycle at which signal appears reflects the starting amount.)

T1 sequence (Q9Y2I7 whole entry, the tested form may be a part): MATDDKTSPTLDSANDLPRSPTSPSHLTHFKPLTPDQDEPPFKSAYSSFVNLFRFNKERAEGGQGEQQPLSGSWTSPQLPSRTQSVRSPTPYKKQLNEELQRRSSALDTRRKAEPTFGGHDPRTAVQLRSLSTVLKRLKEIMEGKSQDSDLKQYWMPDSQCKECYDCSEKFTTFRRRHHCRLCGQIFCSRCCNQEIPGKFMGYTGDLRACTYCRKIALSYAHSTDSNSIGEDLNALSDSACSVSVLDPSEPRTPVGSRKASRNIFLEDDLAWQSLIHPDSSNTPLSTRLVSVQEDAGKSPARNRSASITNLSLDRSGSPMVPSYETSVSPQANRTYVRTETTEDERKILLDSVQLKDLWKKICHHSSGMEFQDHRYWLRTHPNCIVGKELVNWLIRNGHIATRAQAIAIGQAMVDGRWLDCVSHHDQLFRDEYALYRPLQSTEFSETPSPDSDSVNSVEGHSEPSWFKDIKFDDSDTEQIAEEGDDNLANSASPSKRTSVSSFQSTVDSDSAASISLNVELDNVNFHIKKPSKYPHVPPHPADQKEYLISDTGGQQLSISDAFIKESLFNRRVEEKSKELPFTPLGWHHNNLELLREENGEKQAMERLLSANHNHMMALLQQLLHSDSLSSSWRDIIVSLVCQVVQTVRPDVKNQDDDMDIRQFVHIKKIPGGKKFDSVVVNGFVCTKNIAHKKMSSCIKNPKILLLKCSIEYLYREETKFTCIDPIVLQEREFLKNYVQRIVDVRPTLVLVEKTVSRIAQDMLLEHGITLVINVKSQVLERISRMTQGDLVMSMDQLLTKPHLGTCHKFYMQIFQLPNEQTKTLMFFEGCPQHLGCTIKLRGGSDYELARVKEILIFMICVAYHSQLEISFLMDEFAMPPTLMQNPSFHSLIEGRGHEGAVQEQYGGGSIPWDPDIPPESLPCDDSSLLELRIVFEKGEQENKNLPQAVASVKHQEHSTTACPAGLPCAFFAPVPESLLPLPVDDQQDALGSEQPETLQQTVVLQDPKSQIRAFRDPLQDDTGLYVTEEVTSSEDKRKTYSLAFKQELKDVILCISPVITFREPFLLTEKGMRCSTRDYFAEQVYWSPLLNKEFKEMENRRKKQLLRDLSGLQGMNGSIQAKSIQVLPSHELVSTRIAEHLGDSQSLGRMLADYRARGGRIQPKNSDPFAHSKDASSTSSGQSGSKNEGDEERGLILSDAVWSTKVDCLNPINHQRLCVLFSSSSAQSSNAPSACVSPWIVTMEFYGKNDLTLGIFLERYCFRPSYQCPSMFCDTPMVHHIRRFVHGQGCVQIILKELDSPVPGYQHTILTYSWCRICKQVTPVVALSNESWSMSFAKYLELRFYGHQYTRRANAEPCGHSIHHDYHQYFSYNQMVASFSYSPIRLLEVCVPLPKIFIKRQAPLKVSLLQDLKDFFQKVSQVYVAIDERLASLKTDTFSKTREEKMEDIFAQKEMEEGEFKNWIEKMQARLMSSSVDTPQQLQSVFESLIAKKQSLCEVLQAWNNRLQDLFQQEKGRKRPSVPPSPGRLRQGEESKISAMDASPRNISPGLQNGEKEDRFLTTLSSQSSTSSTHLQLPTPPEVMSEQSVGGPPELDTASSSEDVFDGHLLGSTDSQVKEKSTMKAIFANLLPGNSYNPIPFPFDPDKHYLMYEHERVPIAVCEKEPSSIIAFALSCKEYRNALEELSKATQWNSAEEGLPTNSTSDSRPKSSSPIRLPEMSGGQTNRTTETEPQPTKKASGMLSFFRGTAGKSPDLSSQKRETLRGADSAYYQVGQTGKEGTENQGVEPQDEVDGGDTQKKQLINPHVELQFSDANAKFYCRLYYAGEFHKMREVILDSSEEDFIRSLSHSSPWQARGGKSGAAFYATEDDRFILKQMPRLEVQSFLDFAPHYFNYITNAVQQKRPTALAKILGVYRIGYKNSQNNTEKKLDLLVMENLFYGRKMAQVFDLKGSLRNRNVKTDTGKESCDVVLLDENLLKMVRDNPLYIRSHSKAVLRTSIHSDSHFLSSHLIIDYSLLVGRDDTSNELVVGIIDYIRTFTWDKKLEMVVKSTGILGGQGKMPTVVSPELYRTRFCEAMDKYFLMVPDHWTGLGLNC

For `Cc1cccc(-c2cc(O)n(-c3nc4c(c(N5CCOCC5)n3)CN(C(=O)Nc3cccnc3)C4)n2)c1` [Example 38, 2-[5-hydroxy-3-(m-tolyl)pyrazol-1-yl]-4-morpholino-N-(3-pyridyl)-5,7-dihydropyrrolo[3,4-d]pyrimidine-6-carboxamide methane sulfonate], the Kd (usually a measure of binding affinity in units of concentration) was 5 to 10 nM. On to `Cc1cccc(/C=N/Nc2cc(N3CCOCC3)n3nc(C(=O)NC4COC4)cc3n2)c1` [Example 41, 7-morpholino-5-[(2E)-2-(m-tolylmethylene)hydrazino]-N-(oxetan-3-yl)pyrazolo[1,5-a]pyrimidine-2-carboxamide], for which the Kd was ≤ 1 nM. With `Cc1cccc(/C=N/Nc2cc(N3CCOCC3)n3nc(C(=O)NC4CC(F)(F)C4)cc3n2)c1` [Example 42, N-(3,3-difluorocyclobutyl)-7-morpholino-5-[(2E)-2-(m-tolylmethylene)hydrazino]pyrazolo[1,5-a]pyrimidine-2-carboxamide] the figure was 1 to 5 nM.
